Measurements published in the supplement of paper PMC9663587.

Columns and labels:
[1] = compound: CCCCOc1c(C(=O)c2c(F)cc(C)cc2F)c[nH]c2nncc1-2
Luminespib/NVP-AUY922 = compound: CCNC(=O)c1noc(-c2cc(C(C)C)c(O)cc2O)c1-c1ccc(CN2CCOCC2)cc1 [Luminespib/NVP-AUY922]
THZ-P1-2 = compound: CN(C)C/C=C/C(=O)NC1=CC=C(C=C1)C(=O)NC2=CC=CC(=C2)NC3=NC=NC(=C3)C4=CNC5=CC=CC=C54 [THZ-P1-2]
BSJ-01-175 = compound: CN(C)C/C=C/C(=O)Nc1ccc(O[C@@H]2CCC[C@@H](Nc3ncc(Cl)c(-c4c[nH]c5ccccc45)n3)C2)cc1 [BSJ-01-175]
Saracatinib/AZD0530 = compound: CN1CCN(CCOc2cc(OC3CCOCC3)c3c(Nc4c(Cl)ccc5c4OCO5)ncnc3c2)CC1 [Saracatinib/AZD0530]
Ceritinib/LDK378 = compound: Cc1cc(Nc2ncc(Cl)c(Nc3ccccc3S(=O)(=O)C(C)C)n2)c(OC(C)C)cc1C1CCNCC1 [Ceritinib/LDK378]
YKL-5-124 = compound: C=CC(=O)Nc1ccc(C(=O)Nc2[nH]nc3c2CN(C(=O)N[C@H](CN(C)C)c2ccccc2)C3(C)C)cc1 [YKL-5-124]; test: increase in dead-cell fraction, 72 h; higher = more death;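 also: breast cancer cell lines in 384-well plates, stained with Hoechst plus LIVE/DEAD far red dye and imaged, cells above an LDR intensity threshold counted dead, Hoechst-negative corpses included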
BSJ-03-123 = compound: CC(=O)c1c(C)c2cnc(Nc3ccc(N4CCN(CCOCCOCCOCCNC(=O)COc5cccc6c5C(=O)N(C5CCC(=O)NC5=O)C6=O)CC4)cn3)nc2n(C2CCCC2)c1=O [BSJ-03-123]; test: as above
[2] = compound: CC(=O)c1c(C)c2cnc(Nc3ccc(N4CCNCC4)cn3)nc2n(C2CCCC2)c1=O; test: as above
[3] = compound: CCN1CCN(Cc2ccc(Nc3ncc(F)c(-c4cc(F)c5nc(C)n(C(C)C)c5c4)n3)nc2)CC1; test: as above
Neratinib/HKI272 = compound: CCOc1cc2ncc(C#N)c(Nc3ccc(OCc4ccccn4)c(Cl)c3)c2cc1NC(=O)/C=C/CN(C)C [Neratinib/HKI272]; test: as above
[4] = compound: CCc1cnn2c(NCc3ccc[n+]([O-])c3)cc(N3CCCC[C@H]3CCO)nc12; test: as above
LEE011/Ribociclib = compound: CN(C)C(=O)c1cc2cnc(Nc3ccc(N4CCNCC4)cn3)nc2n1C1CCCC1 [LEE011/Ribociclib]; test: as above
THZ531 = compound: CN(C)C/C=C/C(=O)Nc1ccc(C(=O)N2CCC[C@@H](Nc3ncc(Cl)c(-c4c[nH]c5ccccc45)n3)C2)cc1 [THZ531]; test: as above
THZ1 = compound: CN(C)C/C=C/C(=O)Nc1ccc(C(=O)Nc2cccc(Nc3ncc(Cl)c(-c4c[nH]c5ccccc45)n3)c2)cc1 [THZ1]; test: as above
Flavopiridol = compound: CN1CC[C@H](c2c(O)cc(O)c3c(=O)cc(-c4ccccc4Cl)oc23)[C@H](O)C1 [Flavopiridol]; test: as above
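For GR50, 72 h in this document: breast cancer and non-malignant breast epithelial cell lines, Deep Dye Drop or Dye Drop imaging, nine half-log doses, GR normalized to time-zero plates and DMSO-only controls.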

HCC70
GR50, 72 h [1]: 0.00336 µM
GR50, 72 h (Luminespib/NVP-AUY922): 0.00765 µM
GR50, 72 h (THZ-P1-2): 3.18 µM
GR50, 72 h (BSJ-01-175): 0.0192 µM
GR50, 72 h (Saracatinib/AZD0530): 0.0644 µM
GR50, 72 h (Ceritinib/LDK378): 3.19 µM
increase in dead-cell fraction (YKL-5-124; 0.001 µM): 0.0881
increase in dead-cell fraction (YKL-5-124; 0.003162 µM): 0.0945
increase in dead-cell fraction (YKL-5-124; 0.01 µM): 0.148
increase in dead-cell fraction (YKL-5-124; 0.03162 µM): 0.205
increase in dead-cell fraction (YKL-5-124; 0.1 µM): 0.254
increase in dead-cell fraction (YKL-5-124; 0.3162 µM): 0.285
increase in dead-cell fraction (YKL-5-124; 1 µM): 0.376
increase in dead-cell fraction (YKL-5-124; 3.162 µM): 0.41
increase in dead-cell fraction (YKL-5-124; 10 µM): 0.726
increase in dead-cell fraction (BSJ-03-123; 0.001 µM): -0.0022
increase in dead-cell fraction (BSJ-03-123; 0.003162 µM): -0.0076
increase in dead-cell fraction (BSJ-03-123; 0.01 µM): -0.0082
increase in dead-cell fraction (BSJ-03-123; 0.03162 µM): -0.0024
increase in dead-cell fraction (BSJ-03-123; 0.1 µM): 0.0042
increase in dead-cell fraction (BSJ-03-123; 0.3162 µM): -0.0019
increase in dead-cell fraction (BSJ-03-123; 1 µM): -0.0038
increase in dead-cell fraction (BSJ-03-123; 3.162 µM): 0.0046
increase in dead-cell fraction (BSJ-03-123; 10 µM): 0.317
increase in dead-cell fraction ([2]; 0.0003162 µM): -0.0042
increase in dead-cell fraction ([2]; 0.001 µM): 0.0102
increase in dead-cell fraction ([2]; 0.003162 µM): -0.0045
increase in dead-cell fraction ([2]; 0.01 µM): 0.0054
increase in dead-cell fraction ([2]; 0.03162 µM): -0.0062
increase in dead-cell fraction ([2]; 0.1 µM): 0.012
increase in dead-cell fraction ([2]; 0.3162 µM): -0.0151
increase in dead-cell fraction ([2]; 1 µM): -0.0002
increase in dead-cell fraction ([2]; 3.162 µM): -0.0047
increase in dead-cell fraction ([3]; 0.001 µM): 0.0027
increase in dead-cell fraction ([3]; 0.003162 µM): -0.0178
increase in dead-cell fraction ([3]; 0.01 µM): -0.0021
increase in dead-cell fraction ([3]; 0.03162 µM): -0.0067
increase in dead-cell fraction ([3]; 0.1 µM): -0.0175
increase in dead-cell fraction ([3]; 0.3162 µM): -0.0179
increase in dead-cell fraction ([3]; 1 µM): -0.0058
increase in dead-cell fraction ([3]; 3.162 µM): 0.169
increase in dead-cell fraction ([3]; 10 µM): 0.639
increase in dead-cell fraction (Neratinib/HKI272; 0.0003162 µM): 0.0098
increase in dead-cell fraction (Neratinib/HKI272; 0.001 µM): 0.0142
increase in dead-cell fraction (Neratinib/HKI272; 0.003162 µM): 0.015
increase in dead-cell fraction (Neratinib/HKI272; 0.01 µM): 0.0157
increase in dead-cell fraction (Neratinib/HKI272; 0.03162 µM): 0.0249
increase in dead-cell fraction (Neratinib/HKI272; 0.1 µM): 0.0312
increase in dead-cell fraction (Neratinib/HKI272; 0.3162 µM): 0.0482
increase in dead-cell fraction (Neratinib/HKI272; 1 µM): 0.0703
increase in dead-cell fraction (Neratinib/HKI272; 3.162 µM): 0.147
increase in dead-cell fraction ([4]; 0.0001 µM): 0.0046
increase in dead-cell fraction ([4]; 0.0003162 µM): 0.0037
increase in dead-cell fraction ([4]; 0.001 µM): -0.003
increase in dead-cell fraction ([4]; 0.003162 µM): -0.0058
increase in dead-cell fraction ([4]; 0.01 µM): 0.0306
increase in dead-cell fraction ([4]; 0.03162 µM): 0.699
increase in dead-cell fraction ([4]; 0.1 µM): 0.734
increase in dead-cell fraction ([4]; 0.3162 µM): 0.721
increase in dead-cell fraction ([4]; 1 µM): 0.74
increase in dead-cell fraction (LEE011/Ribociclib; 0.001 µM): -0.0029
increase in dead-cell fraction (LEE011/Ribociclib; 0.003162 µM): 0.0024
increase in dead-cell fraction (LEE011/Ribociclib; 0.01 µM): -0.0096
increase in dead-cell fraction (LEE011/Ribociclib; 0.03162 µM): -0.0087
increase in dead-cell fraction (LEE011/Ribociclib; 0.1 µM): -0.0125
increase in dead-cell fraction (LEE011/Ribociclib; 0.3162 µM): -0.0098
increase in dead-cell fraction (LEE011/Ribociclib; 1 µM): -0.0021
increase in dead-cell fraction (LEE011/Ribociclib; 3.162 µM): -0.0069
increase in dead-cell fraction (LEE011/Ribociclib; 10 µM): -0.0152
increase in dead-cell fraction (THZ531; 0.0001 µM): -0.0083
increase in dead-cell fraction (THZ531; 0.0003162 µM): 0.004
increase in dead-cell fraction (THZ531; 0.001 µM): -0.0113
increase in dead-cell fraction (THZ531; 0.003162 µM): -0.0062
increase in dead-cell fraction (THZ531; 0.01 µM): -0.0005
increase in dead-cell fraction (THZ531; 0.03162 µM): 0.0092
increase in dead-cell fraction (THZ531; 0.1 µM): 0.227
increase in dead-cell fraction (THZ531; 0.3162 µM): 0.623
increase in dead-cell fraction (THZ531; 1 µM): 0.805
increase in dead-cell fraction (THZ1; 0.0001 µM): 0.0011
increase in dead-cell fraction (THZ1; 0.0003162 µM): 0.0017
increase in dead-cell fraction (THZ1; 0.001 µM): -0.0087
increase in dead-cell fraction (THZ1; 0.003162 µM): 0.0017
increase in dead-cell fraction (THZ1; 0.01 µM): 0.0017
increase in dead-cell fraction (THZ1; 0.03162 µM): 0.227
increase in dead-cell fraction (THZ1; 0.1 µM): 0.676
increase in dead-cell fraction (THZ1; 0.3162 µM): 0.872
increase in dead-cell fraction (THZ1; 1 µM): 0.868
increase in dead-cell fraction (Flavopiridol; 0.0001 µM): -0.003
increase in dead-cell fraction (Flavopiridol; 0.0003162 µM): -0.0033
increase in dead-cell fraction (Flavopiridol; 0.001 µM): -0.0119
increase in dead-cell fraction (Flavopiridol; 0.003162 µM): -0.0038
increase in dead-cell fraction (Flavopiridol; 0.01 µM): 0.0008
increase in dead-cell fraction (Flavopiridol; 0.03162 µM): 0.009
increase in dead-cell fraction (Flavopiridol; 0.1 µM): 0.0351
increase in dead-cell fraction (Flavopiridol; 0.3162 µM): 0.487
increase in dead-cell fraction (Flavopiridol; 1 µM): 0.401
